Measured values: ChEMBL document CHEMBL3120145, “Interaction kinetics of liposome-incorporated unsaturated fatty acids with fatty acid-binding protein 3 by surface plasmon resonance” (Bioorg Med Chem, 2014)

Tests used:
[1] = target: T1, Fatty acid-binding protein, heart (Homo sapiens, UniProt P05413); assay: Binding affinity to human FABP3 expressed in Escherichia coli BL21 (DE3) at 60 uM by surface plasmon resonance analysis
[2] = target: T1, Fatty acid-binding protein, heart; assay: Binding affinity to human FABP3 expressed in Escherichia coli BL21 (DE3) in DMPC liposomes by surface plasmon resonance analysis
[3] = target: T1, Fatty acid-binding protein, heart; assay: Binding affinity to human FABP3 expressed in Escherichia coli BL21 (DE3) at 10 uM in DMPC liposomes by surface plasmon resonance analysis

T1 sequence (P05413 whole entry): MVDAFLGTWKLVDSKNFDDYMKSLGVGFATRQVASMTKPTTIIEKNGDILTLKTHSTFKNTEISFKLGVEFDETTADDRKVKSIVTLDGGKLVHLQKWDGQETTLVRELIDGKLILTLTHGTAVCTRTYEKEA

SMILES	Kd [1] [nM]	Kd [2] [nM]	Kd [3] [nM]
CCCCCCCCCCCCCC(=O)OC[C@H](COP(=O)(O)OCC[N+](C)(C)C)OC(=O)CCCCCCCCCCCCC	3.6		
CC/C=C\C/C=C\C/C=C\CCCCCCCC(=O)O		2.76	
CCCCCCCCCCC/C=C\CCCCC(=O)O	54200		401
